Patent publication US6410328B1, “Sensitizing cells to compounds using lipid-mediated gene and compound delivery” (Protiva Biotherapeutics Inc., priority 1998, dated 2002)

Legend:
[1] = Organ biodistribution of free and liposomal GCV in B16 tumored mice (Example 10); assay type: in vivo, mouse
Protocol: (§1) Groups of four female C57BL/6 mice per time point were injected subcutaneously with 150,000 B16 tumor cells. The tumors were grown for 14 days at which time a single iv dose of free GCV or liposomal GCV was given via the lateral tail vein. This dose, given in a total of 200 μL, contained approximately 5.6 mg (10 μmoles) lipid and 0.5 mg (1.96 μmoles) GCV resulting in lipid and GCV doses of 300 mg/kg and 25 mg/kg, respectively. Circulating levels of lipid and GCV were determined at 15 min, 1, 8, 24 and 48 hrs for the liposomal GCV groups. Levels of GCV were determined at 15 min and 1 hr for the free GCV groups. At each time point, animals were anesthetized with ketamine/xylazine and blood was collected via cardiac puncture. Blood was put into EDTA coated microtainers and spun at 500 g for 10 min in order to pellet blood cells and obtain plasma. Lipid and GCV levels in the plasma were determined. Lipid and GCV were measured by counting ^14C-CHE and ^3H-GCV. One hundred or 200 μL aliquots of plasma were measured on a Beckman LS3801 scintillation counter.
Biodistribution data was collected from those mice that were in the pharmacokinetic studies. Following heart puncture, mice were terminated by cervical dislocation. Tissues were harvested from each animal and weighed. Saline was added to each organ prior to homogenization by either a Polytron homogenizer (livers) or a Fast Prep® machine. Tissues were solubilized in Solvable for 3 to 16 hr at 50° C. The samples were then cooled to room temperature before defoaming and decolourizing with EDTA and hydrogen peroxide respectively. Picofluorscintillation fluid was added to the samples prior to counting on the scintillation counter.

[2] = system: B16 murine melanoma cells stably transfected with HSV-TK; assay: Efficacy of liposomal ganciclovir in the B16TK tumor model (Example 11); assay type: in vivo, mouse; conditions: day 18; 25 mg/kg ganciclovir every other day from day five, six injections
Protocol: FIG. 13 illustrates efficacy of liposomal ganciclovir in the B16TK tumor model. Female C57BL/6 mice were seeded subcutaneously in the hind flank with 150,000 B16 murine melanoma cells stably transfected with HSV-TK. Five days later, tumor measurement began. Starting on day five, mice were treated with liposomal or free GCV (25 mg/kg ganciclovir) or HBS (Hepes Buffered Saline) every other day for a total of six injections. Measurements at day 18 indicate that tumors in the control mice are 5-fold larger than those of the treated groups. Tumor volume was determined by measuring tumor in three dimensions with calipers.
Groups of 4 or 5 female C57BL/6 mice were injected intradermally with B16 cells stably transfected with HSV-TK. Once tumors were measurable (day 5), the mice were injected intravenously with liposomal GCV (25 mg/kg GCV). Injections were continued every other day for 6 injections. Tumor measurements were typically taken every other day.

in vivo = conditions: female, C57BL/6, mouse, iv, 25 mg/kg
Protocol: as §1, with “counter. […]” for “counter.”
Tumor bearing mice were treated intravenously with 25 mg/kg of free or liposomal GCV. Lipid and GCV were quantified using ^14C-CHE and ^3H-GCV labels. […] Free ganciclovir is rapidly cleared from the tumor, with only 1.1+/−0.1 % of the total injected dose per gram of tumor detected at 1 hr. […]

[3] = Plasma clearance and in vivo release of free and liposomal GCV in B16 tumored mice (Example 9); design: species or system mouse; conditions: 1 hr after single iv dose, 25 mg/kg GCV
Protocol: Large unilamellar vesicles were prepared according to the method of Hope, et al., Biochem. Biophys. Acta. 812:55-65 (1985). 55 mole % sphingomyelin and 45 mole % of cholesterol were dissolved in chloroform with a drop of methanol and approximately 0.035 μCi of ^14C-CHE. Lipids were dried down under a stream of nitrogen gas and the resulting lipid film was then placed under high vacuum for at least 3 hrs. A solution of ganciclovir containing ^3H-GCV was made up in 30% ethanol, 70% HBS (20 mM Hepes, 145 mM NaCl pH 7.45) to 50 or 100 mg/mL depending on the sample size. The lipid to GCV weight ratio was initially 1 to 1. The GCV solution was added to the lipid film. […] The lipid concentration was determined by scintillation counting of ^14C-CHE label. The GCV concentration was determined by counting ^3H-GCV and a Bligh Dyer assay.
Groups of four female C57BL/6 mice per time point were injected subcutaneously with 150,000 B16 tumor cells. […] Circulating levels of lipid and GCV were determined at 15 min, 1, 8, 24 and 48 hrs for the liposomal GCV groups. Levels of GCV were determined at 15 min and 1 hr for the free GCV groups. […] Lipid and GCV levels in the plasma were determined. Lipid and GCV were measured by counting ^14C-CHE and ^3H-GCV. One hundred or 200 μL aliquots of plasma were measured on a Beckman LS3801 scintillation counter.

GCV content of organs assayed (liver, lungs, spleen, kidneys) ([1]; 15 min and 1 hr, except kidneys at 15 min): essentially absent
GCV found in the kidneys ([1]; 15 minute time point): 3.5+/−1.8 % of the total injected dose
GCV found in the liver ([1]; 15 minutes after administration): 3.1+/−0.1 % of the initial injected dose
GCV in the spleen ([1]; 1 hr (peak for liposomal GCV)): 0.04+/−0.02 % of the total injected dose
tissue uptake at 1 h (in vivo): 1.1 %ID/g
injected dose remaining in circulation [3]: 0.4 % of the injected dose
Compound: Nc1nc(O)c2ncn(COC(CO)CO)c2n1 [free GCV, ganciclovir]
tumor size in control HBS-treated mice relative to treated groups [2]: 5 fold
